pKi: −log10 of the molar value.

The assay concerns the target T1, CCK-B receptor (Mus musculus, UniProt P56481).
T1 construct: from tissue; host or cells: cerebral cortex membranes of male CFLP mice
T1 sequence (P56481 1-453): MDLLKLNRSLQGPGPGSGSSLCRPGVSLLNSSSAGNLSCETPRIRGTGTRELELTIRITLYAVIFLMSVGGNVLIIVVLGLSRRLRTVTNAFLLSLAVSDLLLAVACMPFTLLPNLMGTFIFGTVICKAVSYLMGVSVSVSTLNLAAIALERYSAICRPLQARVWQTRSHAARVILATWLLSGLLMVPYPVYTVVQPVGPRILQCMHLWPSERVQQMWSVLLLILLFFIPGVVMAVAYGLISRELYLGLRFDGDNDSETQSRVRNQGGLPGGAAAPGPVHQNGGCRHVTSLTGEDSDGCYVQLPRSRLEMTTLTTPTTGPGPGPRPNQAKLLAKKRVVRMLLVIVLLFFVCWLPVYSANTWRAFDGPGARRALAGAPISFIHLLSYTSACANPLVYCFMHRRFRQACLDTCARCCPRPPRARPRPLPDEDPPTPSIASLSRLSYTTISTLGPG
The assay is described as follows: Displacement of tritiated-pentagastrin binding to mouse cerebral cortical membranes (CCK receptor binding). The arrangement: species or system male CFLP mice. The following applies: displacement of 2 nM tritiated-pentagastrin, Ki by Cheng-Prusoff equation, read-out: Ki, Binding Affinity CCK-B. The method, then: The biological activity of compounds of the present invention was evaluated employing an initial screening test which rapidly and accurately measured the binding of the tested compound to known CCK receptor sites. […] (See Hays, et al., Neuropeptides 1980;1:53-62; and Satuer, et al., Science 1980;208:1155-6.)
In this screening test, the cerebral cortices taken from male CFLP mice weighing between 30-40 g were dissected on ice, weighed, and homogenized in 10 volumes of 50 mM Tris-HCl buffer (pH 7.4 at 0-4° C.). The resulting suspension was centrifuged, the supernate was discarded, and the pellet was washed by resuspension in Tris-HCl buffer followed by recentrifugation. The final pellet was resuspended in 20 volumes of […] buffer (pH 7.2 at 23° C.) containing 130 mM NaCl, […], […], […], 5 mg/mL bovine albumin, and bacitracin (0.25 mg/mL).
In saturation studies, cerebral cortical membranes were incubated at 23° C. for 120 minutes in a final volume of 500 μL of Hepes incubation buffer (pH 7.2) together with 0.2-20 nM tritiated-pentagastrin (Amersham International, England).
In the displacement experiments, membranes were incubated with a single concentration (2 nM) of ligand, together with increasing concentrations ([…]) of competitive test compound. In each case, the nonspecific binding was defined as that persisting in the presence of the unlabeled octapeptide CCK26-33 (10^-6 M).
Following incubation, radioactivity bound to membranes was separated from that free in solution by rapid filtration through Whatman GF/B filters and washed three times with 4 mL of ice cold Tris-HCl buffer. Filters from samples incubated with tritiated-pentagastrin were placed in polyethylene vials with 4 mL of scintillation cocktail, and the radioactivity was estimated by liquid scintillation spectrometry (efficiency 47%-52%).
The specific binding to CCK receptor sites was defined as the total bound tritiated-pentagastrin minus the amount of tritiated-pentagastrin bound in the presence of 10^-6 octapeptide, CCK26-33.
Saturation curves for specific tritiated-pentagastrin binding to mouse cortical membranes were analyzed by the methods of Scatchard (Ann New York Acad Sci 1949;51:660-72, and Hill, J Physiol 1910;40:IV-VIII), to provide estimates for the maximum number of binding sites (Bmax) and the equilibrium dissociation constant ([…]).
In displacement experiments, inhibition curves were analyzed by either logit-log plots or the iterative curve fitting computer program ALLFIT (DeLean, Munson, Redbard, 1978) to provide estimates of the IC50 and nH (apparent Hill coefficient) values). (IC50 values were defined as the concentration of test compound required to produce 50% inhibition of specific binding.)
The inhibition constant (Ki) of the test compound was then calculated according to the Cheng-Prusoff equation: [formula] where [L] is the concentration of radiolabel and Ka is the equilibrium dissociation constant.
With `O=C(Nc1ccc(Cl)cc1)N[C@@H](c1ccccc1)[C@@H](NC(=O)Nc1ccc(C(F)(F)F)cc1)c1ccccc1` [Example 65, (+)-[S-(R*,R*)]-N-(4-chlorophenyl)-N'-[1,2-diphenyl]-2-[[[[4-(trifluoromethyl)phenyl]amino]carbonyl]amino]-ethyl]urea], the pKi is 6.53.
As for `O=C(Nc1ccc([N+](=O)[O-])cc1)N[C@H](c1ccccc1)[C@H](NC(=O)Nc1ccc(C(F)(F)F)cc1)c1ccccc1` (relative stereo) [Example 15, [S-(R*,R*)] and [R-(R*,R*)]-N-[1,2-diphenyl-2-[[[[4-(trifluoromethyl)phenyl]amino]carbonyl]amino]-ethyl]-N'-(4-nitrophenyl)urea], the figure is 6.51; as for `O=C(Nc1ccc(Cl)cc1)N[C@H](c1ccccc1)[C@H](NC(=O)Nc1ccc(C(F)(F)F)cc1)c1ccccc1` (relative stereo) [Example 10, [R-(R*,R*)] and [S-(R*,R*)]-N-(4-chlorophenyl)-N'-[1,2-diphenyl-2-[[[[4-(trifluoromethyl)phenyl]amino]-carbonyl]amino]ethyl]-urea], 6.43; as for `Cc1ccc(S(=O)(=O)NC(=O)N[C@H](c2ccccc2)[C@H](NC(=O)Nc2ccc(C(F)(F)F)cc2)c2ccccc2)cc1` (relative stereo) [Example 14, [S-(R*,R*)] and [R-(R*,R*)]-N-[[[1,2-diphenyl-2-[[[[4-(trifluoromethyl)phenyl]amino]carbonyl]amino]-ethyl]amino]carbonyl]-4-methyl-benzenesulfonamide], 6.73.
For the molecule `O=C(Nc1ccc(Cl)cc1)N[C@H](c1ccccc1)[C@H](NC(=O)NS(=O)(=O)c1ccccc1)c1ccccc1` (relative stereo) [Example 47, [R-(R*,R*)] and [S-(R*,R*)]-N-[[[2-[[[4-chlorophenyl)-amino]carbonyl]amino]-1,2-diphenylethyl]amino]-carbonyl]benzenesulfonamide], the pKi is 6.54.
As for `Cc1ccc(S(=O)(=O)NC(=O)N[C@@H](c2ccccc2)[C@@H](NC(=O)Nc2ccc(Cl)cc2)c2ccccc2)cc1` [Example 64, (+)-[S-(R*,R*)]-N-[[[2-[[[(4-chlorophenyl)amino]-carbonyl]amino]-1,2-diphenylethyl]amino]carbonyl]-4-methyl-urea], the figure is 7.03; as for `Cc1ccc(NC(=O)N[C@H](c2ccccc2)[C@H](NC(=O)NS(=O)(=O)c2ccc(C)cc2)c2ccccc2)cc1` (relative stereo) [Example 54, [R-(R*,R*)] and [S-(R*,R*)]-4-methyl-N-[[[2-[[[(4-methylphenyl)amino]carbonyl]amino]-1,2-diphenylethyl]amino]carbonyl]benzenesulfonamide], 6.75.
With `Cc1ccc(S(=O)(=O)NC(=O)N[C@H](c2ccccc2)[C@H](NC(=O)Nc2ccc(Cl)cc2)c2ccccc2)cc1` (relative stereo) [Example 46, [R-(R*,R*)] and [S-(R*,R*)]-N-[[[2-[[[(4-chlorophenyl)-amino]carbonyl]amino]-1,2-diphenylethyl]amino]-carbonyl]-4-methyl-benzenesulfonamide], the pKi is 6.73.

As usually defined, the pKi is the Ki on a negative log10 scale, so that one unit is a factor of ten.

The record behind these values is patent US6103761A, “Agents acting at cholecystokinin receptors” (Warner-Lambert Company, priority 1994, dated 2000).
